Laboratory results: ChEMBL document CHEMBL5143560, “Rational drug design to explore the structure-activity relationship (SAR) of TRK inhibitors with 2,4-diaminopyrimidine scaffold” (Eur J Med Chem, 2022)

What was measured:
[1] = AUClast in Sprague-Dawley rat at 1 mg/kg, iv by LC-MS/MS analysis; assay type: ADME, organism-based; parameters: time 0 - last, dose 1 mg/kg, route iv; details: in vivo
[2] = Metabolic stability in human liver assessed as intrinsic clearance in presence of NADPH by LC-MS/MS analysis; assay type: ADME, tissue-based; details: read-out: CLH
[3] = AUClast in Sprague-Dawley rat at 3 mg/kg, po by LC-MS/MS analysis; assay type: ADME, organism-based; parameters: time 0 - last, dose 3 mg/kg, route po; details: in vivo
[4] = Half life in Sprague-Dawley rat at 1 mg/kg, iv by LC-MS/MS analysis; assay type: ADME, organism-based; details: in vivo
[5] = Stability of the compound in human plasma assessed as remaining compound measure after 30 mins by LC-MS/MS analysis; assay type: ADME, cell-free; details: read-out: Stability
[6] = MRT in Sprague-Dawley rat at 3 mg/kg, po by LC-MS/MS analysis; assay type: ADME, organism-based; details: in vivo
[7] = Tmax in Sprague-Dawley rat at 3 mg/kg, po by LC-MS/MS analysis; assay type: ADME, organism-based; details: in vivo
[8] = Stability of the compound in human plasma assessed as remaining compound measure after 10 mins by LC-MS/MS analysis; assay type: ADME, cell-free
[9] = Stability of the compound in human plasma assessed as remaining compound measure after 120 mins by LC-MS/MS analysis; assay type: ADME, cell-free; details: read-out: Stability
[10] = Metabolic stability in human liver microsomes assessed as parent compound remaining measured at 60 min in presence of NADPH by LC-MS/MS analysis; assay type: ADME, Microsome; details: read-out: Stability
[11] = Volume of distribution at steady state in Sprague-Dawley rat at 1 mg/kg, iv by LC-MS/MS analysis; assay type: ADME, organism-based; details: in vivo, read-out: Vdss
[12] = Oral bioavailability in Sprague-Dawley rat at 3 mg/kg by LC-MS/MS analysis; assay type: ADME, organism-based; details: in vivo
[13] = Metabolic stability in human liver microsomes assessed as half life in presence of NADPH by LC-MS/MS analysis; assay type: ADME, Microsome
[14] = Metabolic stability in human microsomes assessed as intrinsic clearance in presence of NADPH by LC-MS/MS analysis; assay type: ADME, Microsome
[15] = Metabolic stability in human liver microsomes assessed as parent compound remaining measured at 60 min in absence of NADPH by LC-MS/MS analysis; assay type: ADME, Microsome; details: read-out: Stability
[16] = Cmax in Sprague-Dawley rat at 3 mg/kg, po by LC-MS/MS analysis; assay type: ADME, organism-based; parameters: dose 3 mg/kg, route po; details: in vivo
[17] = Stability of the compound in human plasma assessed as remaining compound measure after 60 mins by LC-MS/MS analysis; assay type: ADME, cell-free; details: read-out: Stability
[18] = Stability of the compound in human plasma assessed as half life by LC-MS/MS analysis; assay type: ADME, cell-free
[19] = MRT in Sprague-Dawley rat at 1 mg/kg, iv by LC-MS/MS analysis; assay type: ADME, organism-based; details: in vivo
[20] = AUCinfinity in Sprague-Dawley rat at 1 mg/kg, iv by LC-MS/MS analysis; assay type: ADME, organism-based; parameters: time infinity, dose 1 mg/kg, route iv; details: in vivo

- AUC(0-t) [1]: 0.325 µg·h/mL
- CLint scaled [2]: < 0.516 L/h/kg
- AUC(0-t) [3]: 0.188 µg·h/mL
- half-life [4]: 3.4 h
- remaining at 0.5 h [5]: 90.1%
- MRT [6]: 3.49 h
- Tmax [7]: 4 h
- Stability [8]: 84%
- remaining at 2 h [9]: 103%
- remaining at 1 h [10]: 90.2%
- Vd [11]: 31 L/kg
- bioavailability [12]: 17.4%
- half-life [13]: > 2.42 h
- CLint scaled [14]: < 0.576 L/h/kg
- remaining at 1 h [15]: 96%
- Cmax [16]: 0.0336 µg/mL
- remaining at 1 h [17]: 90.5%
- half-life [18]: > 4.82 h
- MRT [19]: 3.96 h
- AUC [20]: 0.386 µg·h/mL
SMILES: O=C(N[C@@H]1CCCNC1)c1cccc(Nc2ncc(Cl)c(NCc3cccc(F)c3)n2)c1
